Laboratory results as given in US8642508B2, “Complex for use in stabilizing herbicidal compositions and methods for synthesizing and using” (Bayer Cropscience LP, priority 2005, dated 2014).

Assays:
Type in all cases: physicochemical
[1] = Long-term storage stability 1 year room temperature, Example 7 emulsifiable concentrate (triethanolamine + DBSCa); conditions: Example 7 formulation; 1 year @ room temp
Description: In this example, an emulsifiable concentrate of fenoxaprop p-ethyl, mefenpyr diethyl, pyrasulfotole and bromoxynil mixed esters was prepared. Triethanolamine, a buffer that is capable of hydrogen bonding, was selected as the buffer. Dodecylbenzenesulfontate calcium, also known as DBSCa was also used to provide a calcium cation for the complex. The mixture of Table 13 was prepared by mixing the liquid ingredients, then the solid ingredients at 50° C.
The mixture was tested for long-term storage stability by subjecting separate samples to room temperatures for 1 year.

[2] = Long-term storage stability, Comparative Example 5 emulsifiable concentrate with bromoxynil mixed esters (triethylamine buffer); conditions: Comparative Example 5 formulation
Description: An emulsifiable concentrate of fenoxaprop p-ethyl, mefenpyr diethyl, pyrasulfotole and bromoxynil mixed esters was prepared. Triethylamine, a buffer that is not capable of complexing was selected as the buffer. The mixture of Table 9 was prepared by mixing the liquid ingredients, then the solid ingredients at 50° C.
(§1) The mixture was tested for long-term storage stability by subjecting separate samples to different temperatures for eight weeks.

[3] = Long-term storage stability, Comparative Example 2 mixture (no buffer); conditions: Comparative Example 2 formulation
Description: A mixture of fenoxaprop p-ethyl, mefenpyr diethyl, pyrasulfotole, and fillers was prepared in similar manner as in Table 1 but without a buffer system of the invention (see Table 3).
as §1

[4] = Long-term storage stability, Example 4 emulsifiable concentrate with bromoxynil mixed esters (triethanolamine buffer); conditions: Example 4 formulation
Description: Triethanolamine, a buffer capable of complexing was selected as the buffer. The mixture of Table 7 was prepared by mixing the liquid ingredients, then the solid ingredients at 50° C.
as §1

[5] = Long-term storage stability, Comparative Example 3 emulsifiable concentrate (triethylamine buffer); conditions: Comparative Example 3 formulation
Description: An emulsifiable concentrate of fenoxaprop p-ethyl, mefenpyr diethyl, and pyrasulfotole was prepared. Triethylamine, a buffer that is not capable of complexing or forming a coordination complex or hydrogen bonding, was selected as the buffer. The mixture of Table 5 was prepared by mixing the liquid ingredients, then the solid ingredients at 50° C.
as §1

[6] = Long-term storage stability, Comparative Example 6 mixture with bromoxynil mixed esters (no buffer); conditions: Comparative Example 6 formulation
Description: as §1

[7] = Long-term storage stability, Example 8 mixture (triethanolamine, without DBSCa); conditions: Example 8 formulation
Description: as §1

[8] = Long-term storage stability, Comparative Example 1 emulsifiable concentrate (triethanolamine buffer); conditions: Comparative Example 1 formulation
Description: An emulsifiable concentrate of fenoxaprop-ethyl, mefenpyr diethyl, and pyrasulfotole and fillers was prepared. Triethanolamine, a buffer capable of hydrogen bonding, was selected as the buffer. The mixture of Table 1 was prepared by mixing the liquid ingredients, then the solid ingredients at 50° C.
as §1

[9] = 8 weeks @ 40° C., listed as pyrasulfotole

## CCCCCCC(=O)Oc1c(Br)cc(C#N)cc1Br [Bromoxynil Heptanoate Esters, bromoxynil heptanoate]
[1]
  Avg. Wt % active ingredient: 12.47 Wt %
  Change from expected: −3.03%

## CCCCCCCC(=O)Oc1c(Br)cc(C#N)cc1Br [Bromoxynil Octanoate, bromoxynil octanoate]
[2]; 8 weeks @ 0° C.
  Avg. Wt % active ingredient: 5.67 Wt %
[2]; 8 weeks @ 40° C.
  Avg. Wt % active ingredient: 5.02 Wt %
  change from 0° C.: −11.52%
[2]; 8 weeks @ room temp.
  Avg. Wt % active ingredient: 5.65 Wt %
  change from 0° C.: −0.41%
[1]
  Avg. Wt % active ingredient: 13.08 Wt %
  Change from expected: −3.083%

## CCOC(=O)[C@@H](C)Oc1ccc(Oc2nc3ccc(Cl)cc3o2)cc1 [Fenoxaprop p-ethyl, fenoxaprop p-ethyl]
[3]; 8 weeks @ 0° C.
  Avg. Wt % active ingredient: 8.20 Wt %
[3]; 8 weeks @ 40° C.
  Avg. Wt % active ingredient: 2.64 Wt %
  change from 0° C.: −67.80%
[3]; 8 weeks @ 50° C.
  Avg. Wt % active ingredient: 0.91 Wt %
  change from 0° C.: −88.90%
[3]; 8 weeks @ room temp.
  Avg. Wt % active ingredient: 6.49 Wt %
  change from 0° C.: −20.85%
[2]; 8 weeks @ 0° C.
  Avg. Wt % active ingredient: 4.30 Wt %
[2]; 8 weeks @ 40° C.
  Avg. Wt % active ingredient: 4.33 Wt %
  change from 0° C.: 0.68%
[2]; 8 weeks @ room temp.
  Avg. Wt % active ingredient: 4.33 Wt %
  change from 0° C.: 0.07%
[4]; 8 weeks @ 0° C.
  Avg. Wt % active ingredient: 4.32 Wt %
[4]; 8 weeks @ 40° C.
  Avg. Wt % active ingredient: 3.96 Wt %
  change from 0° C.: −8.25%
[5]; 8 weeks @ 0° C.
  Avg. Wt % active ingredient: 2.93 Wt %
[5]; 8 weeks @ 40° C.
  Avg. Wt % active ingredient: 2.80 Wt %
  change from 0° C.: −4.37%
[5]; 8 weeks @ 50° C.
  Avg. Wt % active ingredient: 2.74 Wt %
  change from 0° C.: −6.39%
[5]; 8 weeks @ room temp.
  Avg. Wt % active ingredient: 2.89 Wt %
  change from 0° C.: −1.19%
[1]
  Avg. Wt % active ingredient: 7.95 Wt %
  Change from expected: −0.625%
[6]; 8 weeks @ 0° C.
  Avg. Wt % active ingredient: 6.97 Wt %
[6]; 8 weeks @ 40° C.
  Avg. Wt % active ingredient: 2.34 Wt %
  change from 0° C.: −66.43%
[6]; 8 weeks @ room temp.
  Avg. Wt % active ingredient: 6.15 Wt %
  change from 0° C.: −11.76%
[7]; 8 weeks @ 0° C.
  Avg. Wt % active ingredient: 4.33 Wt %
[7]; 8 weeks @ 40° C.
  Avg. Wt % active ingredient: 4.00 Wt %
  change from 0° C.: −5.75%
[8]; 8 weeks @ 0° C.
  Avg. Wt % active ingredient: 9.41 Wt %
[8]; 8 weeks @ 40° C.
  Avg. Wt % active ingredient: 9.00 Wt %
  change from 0° C.: −4.31%
[8]; 8 weeks @ 50° C.
  Avg. Wt % active ingredient: 8.58 Wt %
  change from 0° C.: −8.83%
[8]; 8 weeks @ room temp.
  Avg. Wt % active ingredient: 9.34 Wt %
  change from 0° C.: −0.69%

## CCOC(=O)C1=NN(c2ccc(Cl)cc2Cl)C(C)(C(=O)OCC)C1 (stereo not drawn) [Mefenpyr diethyl, mefenpyr diethyl]
[3]; 8 weeks @ 0° C.
  Avg. Wt % active ingredient: 3.81 Wt %
[3]; 8 weeks @ 40° C.
  Avg. Wt % active ingredient: 3.85 Wt %
  change from 0° C.: −1.05%
[3]; 8 weeks @ 50° C.
  Avg. Wt % active ingredient: 3.97 Wt %
  change from 0° C.: −4.20%
[3]; 8 weeks @ room temp.
  Avg. Wt % active ingredient: 4.01 Wt %
  change from 0° C.: +5.24%
[2]; 8 weeks @ 0° C.
  Avg. Wt % active ingredient: 1.73 Wt %
[2]; 8 weeks @ 40° C.
  Avg. Wt % active ingredient: 1.75 Wt %
  change from 0° C.: 0.88%
[2]; 8 weeks @ room temp.
  Avg. Wt % active ingredient: 1.75 Wt %
  change from 0° C.: 0.77%
[4]; 8 weeks @ 0° C.
  Avg. Wt % active ingredient: 1.82 Wt %
[4]; 8 weeks @ 40° C.
  Avg. Wt % active ingredient: 1.80 Wt %
  change from 0° C.: −0.92%
[5]; 8 weeks @ 0° C.
  Avg. Wt % active ingredient: 3.80 Wt %
[5]; 8 weeks @ 40° C.
  Avg. Wt % active ingredient: 3.72 Wt %
  change from 0° C.: −2.10%
[5]; 8 weeks @ 50° C.
  Avg. Wt % active ingredient: 3.73 Wt %
  change from 0° C.: −1.93%
[5]; 8 weeks @ room temp.
  Avg. Wt % active ingredient: 3.77 Wt %
  change from 0° C.: −0.87%
[6]; 8 weeks @ 0° C.
  Avg. Wt % active ingredient: 2.98 Wt %
[6]; 8 weeks @ 40° C.
  Avg. Wt % active ingredient: 3.01 Wt %
  change from 0° C.: 1.01%
[6]; 8 weeks @ room temp.
  Avg. Wt % active ingredient: 3.00 Wt %
  change from 0° C.: 0.67%
[7]; 8 weeks @ 0° C.
  Avg. Wt % active ingredient: 1.74 Wt %
[7]; 8 weeks @ 40° C.
  Avg. Wt % active ingredient: 1.72 Wt %
  change from 0° C.: −1.29%
[8]; 8 weeks @ 0° C.
  Avg. Wt % active ingredient: 3.77 Wt %
[8]; 8 weeks @ 40° C.
  Avg. Wt % active ingredient: 3.74 Wt %
  change from 0° C.: −0.65%
[8]; 8 weeks @ 50° C.
  Avg. Wt % active ingredient: 3.72 Wt %
  change from 0° C.: −1.17%
[8]; 8 weeks @ room temp.
  Avg. Wt % active ingredient: 3.76 Wt %
  change from 0° C.: −0.17%

## Cc1nn(C)c(O)c1C(=O)c1ccc(C(F)(F)F)cc1S(C)(=O)=O [Pyrasulfotole, pyrasulfotole]
[3]; 8 weeks @ 0° C.
  Avg. Wt % active ingredient: 4.76 Wt %
[3]; 8 weeks @ 40° C.
  Avg. Wt % active ingredient: 4.69 Wt %
  change from 0° C.: −1.47%
[3]; 8 weeks @ 50° C.
  Avg. Wt % active ingredient: 4.54 Wt %
  change from 0° C.: −4.62%
[3]; 8 weeks @ room temp.
  Avg. Wt % active ingredient: 4.75 Wt %
  change from 0° C.: −0.21%
[2]; 8 weeks @ 0° C.
  Avg. Wt % active ingredient: 1.38 Wt %
[2]; 8 weeks @ 40° C.
  Avg. Wt % active ingredient: 1.26 Wt %
  change from 0° C.: −9.04%
[2]; [9]
  change from 0° C.: −9.04%
[2]; 8 weeks @ room temp.
  Avg. Wt % active ingredient: 1.30 Wt %
  change from 0° C.: −5.80%
[4]; 8 weeks @ 0° C.
  Avg. Wt % active ingredient: 1.42 Wt %
[4]; 8 weeks @ 40° C.
  Avg. Wt % active ingredient: 1.40 Wt %
  change from 0° C.: −1.30%
[4]; [9]
  change from 0° C.: −1.30%
[5]; 8 weeks @ 0° C.
  Avg. Wt % active ingredient: 5.38 Wt %
[5]; 8 weeks @ 40° C.
  Avg. Wt % active ingredient: 5.43 Wt %
  change from 0° C.: 0.85%
[5]; 8 weeks @ 50° C.
  Avg. Wt % active ingredient: 5.60 Wt %
  change from 0° C.: 4.07%
[5]; 8 weeks @ room temp.
  Avg. Wt % active ingredient: 5.46 Wt %
  change from 0° C.: 1.51%
[1]
  Avg. Wt % active ingredient: 3.14 Wt %
  Change from expected: −3.083%
[6]; 8 weeks @ 0° C.
  Avg. Wt % active ingredient: 3.26 Wt %
[6]; 8 weeks @ 40° C.
  Avg. Wt % active ingredient: 2.81 Wt %
  change from 0° C.: −13.8%
[6]; 8 weeks @ room temp.
  Avg. Wt % active ingredient: 3.01 Wt %
  change from 0° C.: −7.67%
[7]; 8 weeks @ 0° C.
  Avg. Wt % active ingredient: 1.74 Wt %
[7]; 8 weeks @ 40° C.
  Avg. Wt % active ingredient: 1.65 Wt %
  change from 0° C.: −4.81%
[8]; 8 weeks @ 0° C.
  Avg. Wt % active ingredient: 5.57 Wt %
[8]; 8 weeks @ 40° C.
  Avg. Wt % active ingredient: 5.53 Wt %
  change from 0° C.: −0.82%
[8]; 8 weeks @ 50° C.
  Avg. Wt % active ingredient: 5.51 Wt %
  change from 0° C.: −1.12%
[8]; 8 weeks @ room temp.
  Avg. Wt % active ingredient: 5.67 Wt %
  change from 0° C.: 1.71%
